Laboratory results: publication PMC3242765, “Inhibitors of Alphavirus Entry and Replication Identified with a Stable Chikungunya Replicon Cell Line and Virus-Based Assays” (PLoS ONE, 2011)

Tested on: SFV-Rluc
Details: Supplementary Table 2, moderately active compounds (25 - 60% remaining), primary screen at 50 µM

| Structure (SMILES) | % left (remaining SFV replication) [%] |
| --- | --- |
| Cl.Cl.OCCN1CCN(CCC=C2c3ccccc3Sc3ccc(Cl)cc32)CC1 [PC-050] | 55.2 |
| C#CCN(C)[C@H](C)Cc1ccccc1.Cl [PC-055] | 57.6 |
| CC(=O)Oc1c(C)cc(OCC(O)CNC(C)C)c(C)c1C (stereo not shown) [PC-120] | 46.7 |
| O=C1CN=C(c2ccccc2)c2cc([N+](=O)[O-])ccc2N1 [PC-130] | 46.6 |

Same assay, conditions: primary screening of chemical libraries; compounds tested at 50 µM

| Structure (SMILES) | SFV replication % left [%] |
| --- | --- |
| CCN(CC)CCCC(C)Nc1ccnc2cc(Cl)ccc12.O=P(O)(O)O.O=P(O)(O)O (stereo not shown) [PC-044] | 12.2 |
| NS(=O)(=O)c1cc2c(cc1Cl)N=CNS2(=O)=O [PC-045] | 90.3 |
| CN(C)CC/C=C1/c2ccccc2Sc2ccc(Cl)cc21.Cl [PC-047] | 90.3 |
| O=C(O)c1cc(-c2ccccc2)nc2ccccc12 [PC-048] | 65.1 |
| Oc1c(I)cc(Cl)c2cccnc12 [PC-049] | 71.9 |
| Cl.Cl.OCCN1CCN(CCC=C2c3ccccc3Sc3ccc(Cl)cc32)CC1 [PC-050] | 55.2 |
| CC(C)NCC(O)c1ccccc1Cl.Cl.O (stereo not shown) [PC-051] | 63.7 |
| O=S(=O)(O)NC1CCCCC1 [PC-053] | 74.9 |
| C[C@H](CCC(=O)O)[C@H]1CC[C@H]2[C@@H]3CC[C@@H]4C[C@H](O)CC[C@]4(C)[C@H]3C[C@H](O)[C@]12C [PC-054] | 86.5 |
| C#CCN(C)[C@H](C)Cc1ccccc1.Cl [PC-055] | 57.0 |
| Cc1cc(N)c2ccccc2[n+]1CCCCCCCCCC[n+]1c(C)cc(N)c2ccccc21.[Cl-].[Cl-] [PC-056] | 62.5 |
| O=C1CN=C(c2ccccc2F)c2cc(Cl)ccc2N1 [PC-057] | 68.5 |
| CN(C)CC[C@@H](c1ccc(Br)cc1)c1ccccn1.O=C(O)/C=C\C(=O)O [PC-058] | 69.6 |
| CN(C)CC[C@@H](c1ccc(Cl)cc1)c1ccccn1.O=C(O)/C=C\C(=O)O [PC-059] | 68.1 |
| CN1C(=O)CN=C(c2ccccc2)c2cc(Cl)ccc21 [PC-060] | 73.6 |
| CC(C)NCC(O)c1ccc(Cl)c(Cl)c1.Cl (stereo not shown) [PC-062] | 49.6 |
| O=c1oc2ccccc2c(O)c1Cc1c(O)c2ccccc2oc1=O [PC-063] | 65.6 |
| CCN(CC)C(C)C(=O)c1ccccc1.Cl (stereo not shown) [PC-064] | 47.1 |
| C[C@H]1O[C@@H](O[C@H]2[C@@H](O)C[C@H](O[C@H]3[C@@H](O)C[C@H](O[C@H]4CC[C@@]5(C)[C@H](CC[C@@H]6[C@@H]5C[C@@H](O)[C@]5(C)[C@@H](C7=CC(=O)OC7)CC[C@]65O)C4)O[C@@H]3C)O[C@@H]2C)C[C@H](O)[C@@H]1O [PC-065] | 141.9 |
| O=C1c2c(O)cccc2Cc2cccc(O)c21 [PC-066] | 27.2 |
| CN(C)CCOC(c1ccccc1)c1ccccc1.Cl [PC-067] | 41.0 |
| O=C1NC(=O)C(c2ccccc2)(c2ccccc2)N1 [PC-068] | 66.3 |
| Cc1c(N(C)CS(=O)(=O)[O-])c(=O)n(-c2ccccc2)n1C.[Na+] [PC-069] | 86.0 |

| Structure (SMILES) | SFV replication % left [%] |
| --- | --- |
| CN(C)CCC=C1c2ccccc2COc2ccccc21.Cl [PC-070] | 21.6 |
| CCOc1ccc(NC(N)=O)cc1 [PC-071] | 103.3 |
| CC[C@H]1CN2CCc3cc(OC)c(OC)cc3[C@@H]2C[C@@H]1C[C@H]1NCCc2cc(OC)c(OC)cc21.Cl.Cl [PC-072] | 63.1 |
| CCN(CC)C(=O)c1ccc(O)c(OC)c1 [PC-073] | 85.5 |
| CCN(CC)C(C)CN1c2ccccc2Sc2ccccc21.Cl (stereo not shown) [PC-074] | 20.1 |
| CCOC(=O)c1ccc(O)cc1 [PC-075] | 127.8 |
| CCC(N)C(O)c1ccc(O)c(O)c1 (stereo not shown) [PC-076] | 126.8 |
| C#C[C@]1(O)CC[C@H]2[C@@H]3CCc4cc(O)ccc4[C@H]3CC[C@@]21C [PC-077] | 11.7 |
| CCNCC(O)c1cccc(O)c1 (stereo not shown) [PC-078] | 116.8 |
| CC(C(=O)[O-])c1cccc(Oc2ccccc2)c1.CC(C(=O)[O-])c1cccc(Oc2ccccc2)c1.[Ca+2] (stereo not shown) [PC-080] | 87.6 |
| Br.CC(Cc1ccc(O)cc1)NCC(O)c1cc(O)cc(O)c1 (stereo not shown) [PC-081] | 106.6 |
| Cl.Cl.OCCN1CCN(CC/C=C2/c3ccccc3Sc3ccc(C(F)(F)F)cc32)CC1 [PC-082] | 92.6 |
| Nc1ccc(Cl)cc1C(=O)c1ccccc1F [PC-083] | 167.4 |
| O=C(O)/C=C\C(=O)O.O=C(O)/C=C\C(=O)O.OCCN1CCN(CCCN2c3ccccc3Sc3ccc(C(F)(F)F)cc32)CC1 [PC-084] | 98.9 |
| Nc1nc2ncc(CNc3ccc(C(=O)N[C@@H](CCC(=O)O)C(=O)O)cc3)nc2c(=O)[nH]1 [PC-085] | 100.0 |
| COc1ccccc1OCC(O)CO (stereo not shown) [PC-086] | 124.5 |
| CN1C(=O)NC(=O)C(C)(C2=CCCCC2)C1=O (stereo not shown) [PC-087] | 121.3 |
| Oc1ccc(C(O)CNCCCCCCNCC(O)c2ccc(O)c(O)c2)cc1O (stereo not shown) [PC-088] | 124.9 |
| NCCCS(=O)(=O)O [PC-090] | 118.7 |
| NS(=O)(=O)c1cc2c(cc1Cl)NCNS2(=O)=O [PC-091] | 121.2 |
| CC(=O)OCC(=O)[C@@]1(O)CC[C@H]2[C@@H]3CCC4=CC(=O)CC[C@]4(C)[C@H]3[C@@H](O)C[C@@]21C [PC-092] | 116.8 |
| CCN(CCO)CCCC(C)Nc1ccnc2cc(Cl)ccc12.O=S(=O)(O)O (stereo not shown) [PC-093] | 128.9 |
| CNC(C)C(O)c1ccc(O)cc1 (stereo not shown) [PC-094] | 94.4 |

| Structure (SMILES) | SFV replication % left [%] |
| --- | --- |
| CC(CN1c2ccccc2Sc2ccccc21)[N+](C)(C)CCO.[Cl-] (stereo not shown) [PC-096] | 102.2 |
| Cl.Cl.OCCOCCN1CCN(C(c2ccccc2)c2ccc(Cl)cc2)CC1 (stereo not shown) [PC-097] | 98.3 |
| CC(C)Cc1ccc(CC(=O)O)cc1 [PC-098] | 102.2 |
| CC(C)Cc1ccc(C(C)C(=O)O)cc1 (stereo not shown) [PC-099] | 92.8 |
| O[C@H]1[C@H](O)[C@@H](O)[C@H](O)[C@@H](O)[C@H]1O [PC-100] | 106.0 |
| CCC(NC(C)C)C(O)c1ccc(O)c(O)c1 (stereo not shown) [PC-101] | 90.7 |
| CC(C)NCC(O)c1ccc(O)c(O)c1.CC(C)NCC(O)c1ccc(O)c(O)c1.O.O.O=S(=O)(O)O (stereo not shown) [PC-102] | 110.9 |
| CC(C)NCC(O)c1ccc(O)c(O)c1.Cl (stereo not shown) [PC-103] | 112.5 |
| CC(CCc1ccccc1)NCC(O)c1ccc(O)c(C(N)=O)c1.Cl (stereo not shown) [PC-105] | 72.5 |
| O=C1Nc2ccc(Cl)cc2C(c2ccccc2Cl)=NC1O (stereo not shown) [PC-106] | 98.2 |
| CN1CCN=C(c2ccccc2)c2cc(Cl)ccc21 [PC-107] | 87.5 |
| Cc1cccc(Nc2ccccc2C(=O)O)c1C [PC-108] | 103.5 |
| CC1=CC(=O)c2ccccc2C1=O [PC-109] | 28.3 |
| Cc1ccccc1OCC(O)CO (stereo not shown) [PC-110] | 79.2 |
| CNC(C)(C)Cc1ccccc1.CNC(C)(C)Cc1ccccc1.O=S(=O)(O)O [PC-111] | 81.8 |
| Cc1cccc(C)c1NC(=O)C1CCCCN1C.Cl (stereo not shown) [PC-112] | 74.9 |
| CN1CCCCC1CCN1c2ccccc2Sc2ccc([S+](C)[O-])cc21.O=S(=O)(O)c1ccccc1 (stereo not shown) [PC-113] | 93.8 |
| C[C@H](N)[C@H](O)c1cccc(O)c1.O=C(O)C(O)C(O)C(=O)O [PC-114] | 96.5 |
| CN1CCC(CN2c3ccccc3Sc3ccccc32)C1 (stereo not shown) [PC-115] | 22.5 |
| COc1ccc(OC)c(C(O)C(C)N)c1.Cl (stereo not shown) [PC-116] | 98.4 |
| C[N+]1(C)[C@@H]2CC[C@H]1C[C@@H](OC(=O)C(CO)c1ccccc1)C2.[Br-] (stereo partly shown) [PC-117] | 70.9 |
| C[C@](N)(Cc1ccc(O)c(O)c1)C(=O)O [PC-118] | 99.1 |
| COC(=O)c1ccc(O)cc1 [PC-119] | 69.3 |

| Structure (SMILES) | SFV replication % left [%] |
| --- | --- |
| CC(=O)Oc1c(C)cc(OCC(O)CNC(C)C)c(C)c1C (stereo not shown) [PC-120] | 46.2 |
| Cc1ncc([N+](=O)[O-])n1CCO [PC-121] | 69.2 |
| COCCc1ccc(OCC(O)CNC(C)C)cc1.COCCc1ccc(OCC(O)CNC(C)C)cc1.O=C(O)C(O)C(O)C(=O)O (stereo not shown) [PC-122] | 65.7 |
| CC(C)(C)NCC(O)COc1cccc2c1CC(O)C(O)C2 (stereo not shown) [PC-123] | 60.5 |
| N/C(CC(O)COc1cccc2ccccc12)=N/O (stereo not shown) [PC-124] | 20.8 |
| CCn1cc(C(=O)O)c(=O)c2ccc(C)nc21 [PC-125] | 80.4 |
| COc1ccc2cc([C@H](C)C(=O)O)ccc2c1 [PC-126] | 92.7 |
| COc1ccc(C(=O)Cc2c(CCN(C)C)cc3c(c2OC)OCO3)c(C(=O)O)c1OC [PC-127] | 118.3 |
| NC(=O)c1cccnc1 [PC-129] | 116.9 |
| O=C1CN=C(c2ccccc2)c2cc([N+](=O)[O-])ccc2N1 [PC-130] | 46.0 |
| O=C1CN(/N=C/c2ccc([N+](=O)[O-])o2)C(=O)N1 [PC-131] | 58.9 |
| NC(=O)N/N=C/c1ccc([N+](=O)[O-])o1 [PC-132] | 83.7 |
| CC(N)C(O)c1ccc(O)c(O)c1.Cl (stereo not shown) [PC-133] | 118.0 |
| C#C[C@]1(O)CC[C@H]2[C@@H]3CCC4=CC(=O)CC[C@@H]4[C@H]3CC[C@@]21C [PC-134] | 107.8 |
| NCC(O)c1cccc(O)c1 (stereo not shown) [PC-135] | 126.3 |
| CNCCC=C1c2ccccc2CCc2ccccc21.Cl [PC-136] | 5.3 |
| COc1ccc2c(c1OC)C(=O)O[C@@H]2[C@H]1c2c(cc3c(c2OC)OCO3)CCN1C [PC-137] | 103.5 |
| Cl.NCC(O)c1ccc(O)cc1 (stereo not shown) [PC-138] | 102.1 |
| OCCN1CCN(CCCN2c3ccccc3C=Cc3ccccc32)CC1 [PC-139] | 27.5 |
| C[C@@H]1O[C@@H](O[C@H]2C[C@@H](O)[C@]3(CO)[C@H]4[C@H](O)C[C@]5(C)[C@@H](C6=CC(=O)OC6)CC[C@]5(O)[C@@H]4CC[C@]3(O)C2)[C@H](O)[C@H](O)[C@H]1O [PC-140] | 90.9 |
| O=C1Nc2ccc(Cl)cc2C(c2ccccc2)=NC1O (stereo not shown) [PC-141] | 79.1 |
